According to US20240300959A1, “BALASUBRAMIDE DERIVATIVE AND USE THEREOF IN PREPARATION OF MEDICINE FOR TREATING ACUTE LUNG INJURY” (Guangdong Pharmaceutical University, priority 2023, published 2024):

Assays:
[1] = tested on: TNF-α in RAW264.7 macrophages stimulated by lipopolysaccharide; experiment: TNF-α ELISA in cell supernatant of LPS-stimulated RAW264.7 macrophages; type: cell-based, mice; conditions: 10 μM; for activity at 10 µM: Mus musculus, RAW264.7, 2 h, 3 h pretreatment, LPS 100 ng/mL 2 h, RAW264.7, read-out: Percentage of TNF-α in a model group (%)
Experimental: RAW264.7 cells were inoculated into a 96-well plate at a density of 1×10^5 per well. When the cell density was 70%-80%, 18 balasubramide derivatives were prepared into 10 mM working solutions with DMSO, respectively, and then used to pretreat mononuclear macrophages RAW264.7 of mice at a final concentration of 10 μM. After 3 h, lipopolysaccharide (LPS, 100 ng/mL) was added into all wells for action for 2 h except for a control group. A supernatant was collected for later use, and the expression level of an inflammatory factor TNF-α in the cell supernatant was detected according to an operation instruction of a commercial ELISA kit.
RAW264.7 cells were inoculated into a 96-well plate at a density of 1×10^5 per well. When the cell density was 70%-80%, the RAW264.7 cells were pretreated with (+)3C-20 ([…]). After 3 h, lipopolysaccharide (LPS, 100 ng/mL) was added into all wells for action for 2 h except for a control group. The expression level of an inflammatory factor TNF-α in a cell supernatant was detected according to an operation instruction of a commercial ELISA kit, and the cell viability at different administration concentrations of (+)3C-20 was determined according to an operation instruction of a CCK-8 kit.

[2] = tested on: RAW264.7 cells; experiment: Cytotoxicity test, CCK-8 cell viability of RAW264.7 cells (24 h); type: cell-based, mice; conditions: 10 μM, RAW264.7 cell viability
Experimental: RAW264.7 cells were inoculated into a 96-well plate at a density of 1×10^5 per well. When the cell density was 70%-80%, the RAW264.7 cells were pretreated with 10 mM working solutions prepared from 18 balasubramide derivatives at a final concentration of 10 μM for 24 h, and then the cell viability was determined by a CCK-8 method.

[3] = tested on: mice with sepsis and lung injury caused by intraperitoneal injection of lipopolysaccharide; experiment: Acute lung injury caused by sepsis (intraperitoneal injection of lipopolysaccharide); type: in vivo, ICR mice
Experimental: Administration and grouping of animals: Male ICR mice were used as experimental animals, which were randomly divided into a control group, a model group, a positive administration group and administration groups according to the body weight. The control group and the model group were administered with a solvent by intraperitoneal injection (the solvent was prepared from DMSO, Kolliphor HS15 and Saline at a ratio of 1:2:7), the positive administration group was administered with 5 mg/kg dexamethasone (DEX) by intraperitoneal injection, and the administration groups were administered with (+)3C-20 at a concentration of 10 mg/kg and 50 mg/kg, respectively, by intraperitoneal injection. The dexamethasone and the (+)3C-20 were dissolved in the above solvent and were clear and transparent. The administration was continued for 3 days. 2 h after the last administration, all the other groups were administered with LPS (10 mg/kg) by intraperitoneal injection while the control group was administered with an equal volume of normal saline by intraperitoneal injection. Body weight and lung index: The mice were weighed and randomly divided on day 1 and continuously weighed for 3 days before administration, and growth conditions of the mice were measured by statistics. The mice were administered with LPS by intraperitoneal injection 2 h after administration on day 3, then the mice were dissected 6 h later, and the lungs were taken, weighed and recorded.
On day 3, 6 h after the intraperitoneal injection of LPS, whole blood was collected from eye sockets and then subjected to centrifugation to prepare serum, and the serum was frozen at −80° C. The lungs were subjected to perfusion with PBS and fixed by paraformaldehyde, and the fixed lungs were stained with hematoxylin-eosin (H&E) after dehydration, paraffin embedding and sectioning. The serum was tested by a commercial TNF-α ELISA kit. Histopathological results and data statistics are shown in FIG. 7-1, FIG. 7-2 and Table 7.
A small amount of frozen lung tissues were taken and fully ground, and the expression of inflammation related genes in the lung tissues was detected by an RT-PCR technology according to an operation instruction of an RNA extraction kit.

[4] = tested on: mice with acute lung injury caused by intratracheal instillation of lipopolysaccharide; experiment: Acute lung injury caused by lung exposure to bacterial endotoxin (intratracheal instillation of LPS); type: in vivo, ICR mice
Experimental: Grouping, administration and modeling of animals: Male ICR mice were used as experimental animals, which were randomly divided into a control group, a model group, a positive administration group and administration groups according to the body weight. The control group and the model group were administered with a solvent by intraperitoneal injection (the solvent was prepared from DMSO, Kolliphor HS15 and Saline at a ratio of 1:2:7), the positive administration group was administered with 5 mg/kg dexamethasone by intraperitoneal injection, and the administration groups were administered with (+)3C-20 at a concentration of 10 mg/kg and 50 mg/kg, respectively, by intraperitoneal injection. The dexamethasone and the (+)3C-20 were dissolved in the above solvent and were clear and transparent. The administration was continued for 3 days. 2 h after the last administration, the mice were anesthetized with 2.5% isoflurane, necks were disinfected, cortices of the necks were cut, and tracheae were separated. All other groups were administered with 50 μL of 10 mg/mL LPS (LPS dissolved in Saline) at a dose of 20 mg/kg by instillation while the control group was administered with 50 μL of Saline by intratracheal instillation (it.), and the cortices were sutured. 6 h after the instillation of LPS, the mice were sacrificed, and serum and lung tissues were taken for later use. Body weight and lung index: The mice were weighed and randomly divided on day 1 and continuously weighed for 3 days before administration. 2 h after the last administration, the mice were administered with 50 μL of […] LPS by intratracheal instillation. 6 h later, the mice were dissected, and the lungs were taken and weighed.
On day 3, 6 h after the intratracheal instillation of LPS, a part of the mice were subjected to perfusion with PBS and treated with paraformaldehyde to fix the right lobe of the lungs, another part of the mice were dissected to obtain lungs, and the lungs were frozen with liquid nitrogen for later use. The fixed right lungs were stained with hematoxylin-eosin (H&E) after dehydration, paraffin embedding and sectioning. 40 mg of the frozen lungs were cut, 300 μL of an RIPA lysis buffer was added thereto and homogenized by starting for 45 s and stopping for 15 s at a frequency of 60 Hz in 4 cycles for full lysis, and then centrifuged at 12,000 rpm at 4° C. A supernatant was taken, the protein concentration was calibrated and adjusted with a BCA protein assay kit, and then the level of an inflammatory factor TNF-α in lung tissue homogenates of various groups was detected by a commercial TNF-α ELISA kit. Results are shown in Table 10, FIG. 10-1 and FIG. 10-2.
A small amount of frozen lung tissues were taken, a Trizol lysis reagent was added thereto and fully ground, RNA was extracted according to an operation instruction of an RNA extraction kit, and the expression of inflammation related genes in the lung tissues was detected by an RT-PCR technology. Experimental results are shown in Table 11, FIG. 11-1 and FIG. 11-2.

[5] = 5 mg/kg i.p., lung tissue RT-PCR, i.p. LPS
[6] = 5 mg/kg intraperitoneal, i.p. LPS sepsis model, in g (unit assumed)
[7] = 5 mg/kg i.p., lung tissue RT-PCR, intratracheal LPS
[8] = 5 mg/kg intraperitoneal, intratracheal LPS model, in g (unit assumed)

O=C(CCc1ccc(C(F)(F)F)cc1)O[C@@H]1C(=O)NCCc2c([nH]c3ccccc23)[C@H]1c1ccc(C(F)(F)F)cc1 (racemic) [(±)-3C-20]
anti-inflammatory activity (inhibition of expression of TNF-α in macrophages), in words ([1]; RAW264.7, LPS): better anti-inflammatory activity than other derivatives

O=C(CCc1ccc(C(F)(F)F)cc1)O[C@@H]1C(=O)NCCc2c([nH]c3ccc(OC(=O)c4ccc([N+](=O)[O-])cc4)cc23)[C@H]1c1ccc(C(F)(F)F)cc1 [(+)-D7c]
Percentage of CCK-8 in a model group (%) [2]: 109.17 ± 0.16%
activity at 10 µM [1]: 74.5 ± 3.55%

CCCn1c2c(c3ccccc31)CCNC(=O)[C@@H](OC(=O)CCc1ccc(C(F)(F)F)cc1)[C@@H]2c1ccc(C(F)(F)F)cc1 [(+)-c3]
Percentage of CCK-8 in a model group (%) [2]: 110.41 ± 0.54%
activity at 10 µM [1]: 81.8 ± 1.11%

O=C(CCc1ccc(C(F)(F)F)cc1)O[C@@H]1C(=O)NCCc2c([nH]c3ccc(OCc4ccccc4)cc23)[C@H]1c1ccc(C(F)(F)F)cc1 [(+)-B3h]
Percentage of CCK-8 in a model group (%) [2]: 99.75 ± 1.27%
activity at 10 µM [1]: 66.1%

COc1ccc2[nH]c3c(c2c1)CCNC(=O)[C@@H](OC(=O)CCc1ccc(C(F)(F)F)cc1)[C@@H]3c1ccc(C(F)(F)F)cc1 [(+)-B3c]
Percentage of CCK-8 in a model group (%) [2]: 96.16 ± 4.12%
activity at 10 µM [1]: 84.5%

C[C@@H]1C[C@H]2[C@@H]3CCC4=CC(=O)C=C[C@]4(C)[C@@]3(F)[C@@H](O)C[C@]2(C)[C@@]1(O)C(=O)CO [Dexamethasone, dexamethasone, reference compound]
Content of TNF-α in serum (% of Model) ([3]; 5 mg/kg i.p., 6 h after i.p. LPS): 40.09 ± 2.26 % of Model
Area percentage of alveolar cells (%) ([3]; 5 mg/kg i.p., 6 h after i.p. LPS, H&E lung sections): 32.2 ± 0.95 %
Change multiple of IL-1β [3, 5]: 8.65 ± 1.04
Change multiple of IL-6 [3, 5]: 40.56 ± 7.55
Change multiple of TNF-α [3, 5]: 6.09 ± 0.82
Change multiple of iNOS [3, 5]: 2.61 ± 0.39
Lung index (%) ([3]; 5 mg/kg intraperitoneal 3 days, 6 h after i.p. LPS 10 mg/kg): 0.649 ± 0.01 %
Body weight (Day 1) [3, 6]: 25.11 ± 0.52
Body weight (Day 2) [3, 6]: 26.23 ± 0.38
Body weight (Day 3) [3, 6]: 26.97 ± 0.45
Content of TNF-α in a lung tissue homogenate (% of Model) ([4]; 5 mg/kg i.p., 6 h after intratracheal LPS): 54.882 ± 6.836 % of Model
Area percentage of alveolar cells (%) ([4]; 5 mg/kg i.p., 6 h after intratracheal LPS, H&E lung sections): 34.322 ± 2.452 %
Change multiple of COX-2 [4, 7]: 2.75 ± 0.24
Change multiple of IL-1β [4, 7]: 12.38 ± 1.28
Change multiple of IL-6 [4, 7]: 14.75 ± 2.71
Change multiple of TNF-α [4, 7]: 18.63 ± 2.26
Change multiple of iNOS [4, 7]: 10.02 ± 1.78
Lung index (%) ([4]; 5 mg/kg intraperitoneal 3 days, 6 h after intratracheal LPS): 0.591 ± 0.008 %
Body weight (Day 1) [4, 8]: 27.51 ± 0.11
Body weight (Day 2) [4, 8]: 28.75 ± 0.17
Body weight (Day 3) [4, 8]: 29.48 ± 0.17

CCn1c2c(c3ccccc31)CCNC(=O)[C@@H](OC(=O)CCc1ccc(C(F)(F)F)cc1)[C@@H]2c1ccc(C(F)(F)F)cc1 [(+)-c2]
Percentage of CCK-8 in a model group (%) [2]: 102.17 ± 2.74%
activity at 10 µM [1]: 101 ± 1.21%

Cn1c2c(c3ccccc31)CCNC(=O)[C@@H](OC(=O)CCc1ccc(C(F)(F)F)cc1)[C@@H]2c1ccc(C(F)(F)F)cc1 [(+)-c1]
Percentage of CCK-8 in a model group (%) [2]: 105.02 ± 2.84%
activity at 10 µM [1]: 83.4%

O=C(CCc1ccc(C(F)(F)F)cc1)O[C@@H]1C(=O)NCCc2c([nH]c3ccc(F)cc23)[C@H]1c1ccc(C(F)(F)F)cc1 [(+)-B3d]
Percentage of CCK-8 in a model group (%) [2]: 90.33 ± 5.86%
activity at 10 µM [1]: 101 ± 4.46%

O=C(CCc1ccc(C(F)(F)F)cc1)O[C@@H]1C(=O)NCCc2c([nH]c3ccc(Br)cc23)[C@H]1c1ccc(C(F)(F)F)cc1 [(+)-B3e]
Percentage of CCK-8 in a model group (%) [2]: 95.66 ± 4.02%
activity at 10 µM [1]: 76.2%

O=C(CCc1ccc(C(F)(F)F)cc1)O[C@@H]1C(=O)NCCc2c([nH]c3cccc(F)c23)[C@H]1c1ccc(C(F)(F)F)cc1 [(+)-B3a]
Percentage of CCK-8 in a model group (%) [2]: 103.22 ± 1.79%
activity at 10 µM [1]: 91.2 ± 3.03%

C=CCn1c2c(c3ccccc31)CCNC(=O)[C@@H](OC(=O)CCc1ccc(C(F)(F)F)cc1)[C@@H]2c1ccc(C(F)(F)F)cc1 [(+)-c4]
Percentage of CCK-8 in a model group (%) [2]: 110.28 ± 1.56%
activity at 10 µM [1]: 96.1 ± 1.48%

Cc1cccc2c3c([nH]c12)[C@@H](c1ccc(C(F)(F)F)cc1)[C@H](OC(=O)CCc1ccc(C(F)(F)F)cc1)C(=O)NCC3 [(+)-B3g]
Percentage of CCK-8 in a model group (%) [2]: 101.49 ± 2.57%
activity at 10 µM [1]: 78.5%

CCOc1ccc2[nH]c3c(c2c1)CCNC(=O)[C@@H](OC(=O)CCc1ccc(C(F)(F)F)cc1)[C@@H]3c1ccc(C(F)(F)F)cc1 [(+)-D7a]
Percentage of CCK-8 in a model group (%) [2]: 106.69 ± 1.21%
activity at 10 µM [1]: 97.7 ± 1.5%

CC(C)(C)OC(=O)N[C@H](CC(=O)O[C@@H]1C(=O)NCCc2c([nH]c3ccccc23)[C@H]1c1ccc(C(F)(F)F)cc1)c1ccc(C(F)(F)F)cc1 [(+)-c5]
Percentage of CCK-8 in a model group (%) [2]: 110.66 ± 0.55%
activity at 10 µM [1]: 71.77 ± 0.56%

O=C(CCc1ccc(C(F)(F)F)cc1)O[C@@H]1C(=O)NCCc2c([nH]c3cc(Cl)ccc23)[C@H]1c1ccc(C(F)(F)F)cc1 [(+)-B3f]
Percentage of CCK-8 in a model group (%) [2]: 96.96 ± 3.85%
activity at 10 µM [1]: 90.2 ± 2.92%

O=C1NCCc2c([nH]c3ccc(Br)cc23)[C@@H](c2ccccc2)[C@@H]1O [B001]
Percentage of CCK-8 in a model group (%) [2]: 108.8 ± 2.72%
activity at 10 µM [1]: 71.9 ± 3.5%

O=C1NCCc2c([nH]c3ccccc23)[C@@H](c2ccc(C(F)(F)F)cc2)[C@@H]1O [(+)-3C]
Percentage of CCK-8 in a model group (%) [2]: 105.39 ± 4.26%
activity at 10 µM [1]: 86.4 ± 3.06%
